The record followed here is US20190247302A1, “MATERIALS AND METHODS FOR TREATING OPHTHALMIC INFLAMMATION” (University of Miami, priority 2016, published 2019).

The nature of series [1]: Concentration of bromodomain inhibitor achievable in the new ophthalmic formulation. Format: physicochemical. Particulars: 0.5% DMSO, 0.5% Tween-80, 0.9% NaCl, 1.8% Captisol, versus previous formulations. The text has this: Next, to address whether local administration of bromodomain inhibitors could be used to regulate ocular inflammatory responses, an ophthalmic formulation BRDi compounds was developed. De novo development was required because the solution required to dissolve these non-polar compounds was not amenable to application to the ocular surface, as they require dilution in high concentrations of DMSO and Tween 80.
To address this issue, a new ophthalmic formulation was developed. The bromodomain inhibitors were successfully diluted at higher concentrations when formulated with DMSO, polysorbate (Tween-80), preservative free 0.9% NaCl, and captisol (Captisol®), which is a polyanionic beta-cyclodextrin derivative providing. […] Using this new formulation, the concentrations of both DMSO and Tween-80 were able to be reduced, from 5% to 0.5% of each (which is tolerable to the eye). The final solution containing the bromodomain inhibitors was 0.5% DMSO, 0.5% Tween-80 and 1.8% Captisol.

For series [2], the system named is TNFα production in RAW cells. The series can be described thus: TNFα protein in LPS-treated RAW cells, intracellular antibody staining and flow cytometry. Format: cell-based. As to conditions: 1 μg/ml LPS, BRDi 67.5-500 nM. The protocol:
Y axis=TNFα percentage of P1 gate; X axis=no LPS/no BRDi, 1 μg/ml LPS/no BRDi, BRDI 500 nM LPS, BRDI 250 nM LPS, BRDI 125 nM LPS, BRDI 67.5 Nm LPS. Triangles=JQ1; squares=IBET151; circles=EP313.
Studies then examined protein production and confirmed that TNFα was reduced by treating RAW cells in vitro with multiple bromodomain inhibitor compounds (FIG. 2).
A general note: A flow cytometer gives signals particle by particle.

In a further series the test system is LPS-induced keratitis. The series is described as follows: LPS-induced keratitis, local BRDi administration; clinical haze score. Format: in vivo. The text has this:
FIG. 5 is a bar graph illustrating the effect of prior formulations on corneal clarity and corneal edema following LPS-induced keratitis. Y axis=clinical haze score; X axis=time after application of LPS+formulations (IBET151, topical (solid bar); IBET151, subconjunctival (hashed bar); solvent, subconjunctival (dotted bar)). […] FIG. 6 is a bar graph illustrating the effect of a formulation of the instant disclosure (administered via subconjunctival injection) on corneal clarity and corneal edema following LPS-induced keratitis. Y axis=clinical haze score; X axis=time after application of LPS+IBET151 formulation (solid bar); solvent alone (hashed bar); saline (dotted bar)). […] FIG. 7 is a bar graph illustrating the effect of a formulation of the instant disclosure (topical administration) on corneal clarity and corneal edema following LPS-induced keratitis. Y axis=clinical haze score; X axis=time after application of LPS+JQ1 formulation (topical, hashed bar); solvent alone (subconjunctival, dotted bar)). […] Next, to address whether local administration of bromodomain inhibitors could be used to regulate ocular inflammatory responses, an ophthalmic formulation BRDi compounds was developed. De novo development was required because the solution required to dissolve these non-polar compounds was not amenable to application to the ocular surface, as they require dilution in high concentrations of DMSO and Tween 80. […] The new formulation comprising bromodomain inhibitor IBET-151 was delivered locally in the eye by subconjunctival injection (20 μg/kg/body weight) just prior and during the induction of in vivo LPS-induced keratitis. […] To confirm that a second bromodomain inhibitor could successfully be used in the ocular compartment to reduce inflammation, JQ1 dissolved in the new ophthalmologic formulation was locally administered (1 μg/μl). The formulation was applied topically, i.e. on the corneal surface 1 drop/3× per day.

Series [3] has as its system conjunctival epithelial cells (HCEC). The series is described as follows: Cytokine mRNA in LPS-exposed human conjunctival epithelial cells (HCEC). Format: cell-based. As to conditions: 3 hours LPS, 500 nM. As to the method:
(§1) FIGS. 8A-8C are a bar graph illustrating the effect of BRDi on a human ocular surface primary parenchymal cell line. FIG. 8A illustrates cytokine/GAPDH mRNA levels (ratio to no treatment) (Y-axis) of IL-8, IL-1β, IL-6, TNFα, and CCL2 in HCEC administered no treatment (solid bars), three hours after exposure to LPS (gray bar), and three hours after exposure to LPS and JQ1 (500 nM, hashed bar). FIG. 8B illustrates cytokine/GAPDH mRNA levels (ratio to no treatment) (Y-axis) of IL-8, IL-1β, and IL-6 in keratocytes administered no treatment (solid bars), four hours after exposure to LPS (gray bar), four hours after exposure to LPS and JQ1 (500 nM, hashed bar), and four hours after exposure to LPS and EP313 (500 nM, checked bar). FIG. 8C illustrates cytokine/GAPDH mRNA levels (ratio to no treatment) (Y-axis) of CCL2 in keratocytes administered no treatment (solid bars), four hours after exposure to LPS (gray bar), four hours after exposure to LPS and JQ1 (500 nM, hashed bar), and four hours after exposure to LPS and EP313 (500 nM, checked bar).
The ability of BRDi compounds to regulate production of dry eye-associated cytokines and chemokines produced by human ocular parenchymal cell populations also was examined. In vitro cells from the cornea and conjunctiva compartments of donated human eyes (Florida Lions Bank) were expanded. Primary cell lines were developed comprising either corneal keratocytes or conjunctival epithelial cells (HCEC) (FIG. 8A-8C). Following 3 hr. exposure to LPS, HCEC produced significant levels of IL-8, […], TNFα, CCL2, and detectable levels of IL-6 RNA (FIG. 8A). […] Corneal keratocyte cultures were also examined for RNA production and were also regulated by BRDi compounds JQ1 and EP313 (FIGS. 8B and 8C). […] These observations extend the potential of BRDi to inhibit ocular inflammation. Additionally, differences may exist between the families of BRDi compounds such that particular BRDi may be more useful under a specific set of disease conditions.

A further series concerns corneal keratocytes. The series can be described thus: Cytokine mRNA in LPS-exposed human corneal keratocytes. Format: cell-based. Particulars: 4 hours LPS, 500 nM. As to the method: as §1
The ability of BRDi compounds to regulate production of dry eye-associated cytokines and chemokines produced by human ocular parenchymal cell populations also was examined. In vitro cells from the cornea and conjunctiva compartments of donated human eyes (Florida Lions Bank) were expanded. […]

SMILES strings stand for the structures. “Also recorded” adds a separate entry of the source.

As to `COc1cc2c(cc1-c1c(C)noc1C)ncc1[nH]c(=O)n([C@H](C)c3ccccn3)c12` [IBET151], in series [1], the “concentration of bromodomain inhibitor that can be formulated” value was “significantly higher concentrations”. Further, in series [2], the “TNFα protein (TNFα percentage of P1 gate)” value is reported as “TNFα protein inhibition”. Further, the “clinical haze score (corneal clarity and corneal edema)” value in the series with LPS-induced keratitis (new formulation RLVP.001, subconjunctival injection, 20 μg/kg/body weight) was “prevents corneal opacification”; with LPS-induced keratitis (new formulation RLVP.001, subconjunctival injection, 20 μg/kg/body weight, listed as IBET-151), “ameliorates the development of corneal inflammation”.

With `Cc1sc2c(c1C)C(c1ccc(Cl)cc1)=N[C@@H](CC(=O)OC(C)(C)C)c1nnc(C)n1-2` [JQ1], in series [3], the “CCL2 RNA level” value is “marked decreases”, the “IL-1β RNA level” value was “marginally reduced”, the “IL-6 RNA level” value was “marked decreases” and the “IL-8 RNA level” value is given as “marked decreases”. The “TNFα RNA level” value in series [3] is reported as “marked decreases”. Also, in series [1], the “concentration of bromodomain inhibitor that can be formulated” value is “significantly higher concentrations”. Besides, in the series with corneal keratocytes, the “cytokine RNA production” value is “regulated”. Further, in series [2], the “TNFα protein (TNFα percentage of P1 gate)” value is “TNFα protein inhibition”. Further, the “clinical haze score (corneal clarity and corneal edema)” value in the series on LPS-induced keratitis (new formulation RLVP.001, topical, 1 μg/μl, 1 drop/3× per day) is “prevents corneal opacification; also recorded: successfully ameliorated the inflammatory response in the cornea”.
